Data published in PubChem BioAssay (NCI).
Where “and” joins values, the source holds several entries; their conditions need not be identical. Equal values may be shown once.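 48-hour exposure; five concentrations; linearly interpolated endpoints. TGI denotes the concentration required for complete inhibition of growth.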

What was measured:
Experiment in all cases: NCI-60 cell line screen, 48 h
LOX IMVI melanoma = tested on: LOX IMVI melanoma
HCC-2998 colon = tested on: HCC-2998 colon
HCT-116 colon = tested on: HCT-116 colon
SNB-75 CNS = tested on: SNB-75 CNS
CAKI-1 renal = tested on: CAKI-1 renal
MDA-MB-435 = tested on: MDA-MB-435
A498 renal = tested on: A498 renal
SW-620 colon = tested on: SW-620 colon
NCI/ADR-RES ovarian = tested on: NCI/ADR-RES ovarian
T-47D breast = tested on: T-47D breast
SF-268 CNS = tested on: SF-268 CNS
SF-295 CNS = tested on: SF-295 CNS
NCI-H460 lung = tested on: NCI-H460 lung
MDA-MB-231 breast = tested on: MDA-MB-231 breast
K-562 leukemia = tested on: K-562 leukemia
HS 578T breast = tested on: HS 578T breast
OVCAR-3 ovarian = tested on: OVCAR-3 ovarian
SF-539 CNS = tested on: SF-539 CNS
COLO 205 colon = tested on: COLO 205 colon
MCF7 breast = tested on: MCF7 breast

Row | Compound | TGI (LOX IMVI melanoma) | TGI (HCC-2998 colon) | TGI (HCT-116 colon) | TGI (SNB-75 CNS) | TGI (CAKI-1 renal) | TGI (MDA-MB-435) | TGI (A498 renal) | TGI (SW-620 colon) | TGI (NCI/ADR-RES ovarian) | TGI (T-47D breast) | TGI (SF-268 CNS) | TGI (SF-295 CNS) | TGI (NCI-H460 lung) | TGI (MDA-MB-231 breast) | TGI (K-562 leukemia) | TGI (HS 578T breast) | TGI (OVCAR-3 ovarian) | TGI (SF-539 CNS) | TGI (COLO 205 colon) | TGI (MCF7 breast)
1 | CCOc1ccccc1Nc1ccc(N)cc1S(=O)(=O)O | > 100 µM | > 100 µM | > 100 µM | > 100 µM | > 100 µM | > 100 µM | > 100 µM | > 100 µM | > 100 µM | > 100 µM | > 100 µM | > 100 µM | > 100 µM | > 100 µM | > 100 µM | > 100 µM | > 100 µM | – | – | –
2 | CC(C)C1=CC2=CC[C@@H]3[C@](C)(CCC[C@@]3(C)C(=O)O)[C@H]2CC1 | > 100 µM | > 100 µM | > 80.2 µM | > 100 µM | > 100 µM | – | > 100 µM | > 100 µM | – | – | > 100 µM | > 100 µM | > 100 µM | – | > 100 µM | – | 72.4 µM | > 100 µM | 71.9 µM | –
3 | O=C1/C(=C/C=C/c2ccccc2)N=C(c2ccccc2)N1c1ccc(S(=O)(=O)Nc2nccs2)cc1 | 55.1 µM | – | > 100 µM | > 100 µM | > 100 µM | > 100 µM | > 100 µM | > 100 µM | > 100 µM | > 100 µM | 39.8 µM | > 100 µM | > 100 µM | – | > 100 µM | > 100 µM | 48.2 µM | 45.9 µM | 35.5 µM | > 100 µM
4 | N#Cc1ccc([N+](=O)[O-])cc1NC(N)=S | – | > 100 µM | > 100 µM | > 100 µM | > 100 µM | – | > 100 µM | > 100 µM | – | – | > 100 µM | > 100 µM | – | – | – | – | > 100 µM | > 100 µM | > 100 µM | –
5 | CC[C@@]1(O)C[C@H](OC2CC(N(C)C)C(OC3CC(O)C(OC4CCC(=O)C(C)O4)C(C)O3)C(C)O2)c2c(cc3c(c2O)C(=O)c2c(O)cccc2C3=O)C1C(=O)OC (stereo partly drawn) | – | 0.598 µM and 1.88 µM | – | – | 4.09 µM | – | 0.213 µM | – | 0.673 µM | – | – | 1.1 µM and 1.89 µM | 1.42 µM | 0.058 µM | – | 0.618 µM | 0.23 µM and 1.96 µM | – | – | –
6 | CC(=O)OCC1=CC2OC(=O)C3=COC(OC4OC(CO)C(O)C(O)C4O)C1C32 (stereo not drawn) | > 100 µM | > 100 µM | > 100 µM | > 100 µM | > 100 µM | > 100 µM | > 100 µM | > 100 µM | > 100 µM | > 100 µM | > 100 µM | > 100 µM | – | > 100 µM | – | > 100 µM | > 100 µM | > 100 µM | > 100 µM | > 100 µM
7 | C=CCn1c(=O)c(Br)nn(CCOCP(=O)(OCC)OCC)c1=O | > 100 µM | > 100 µM | – | > 100 µM | > 100 µM | > 100 µM | > 100 µM | > 100 µM | > 100 µM | > 100 µM | > 100 µM | – | > 100 µM | > 100 µM | > 100 µM | > 100 µM | > 100 µM | > 100 µM | > 100 µM | > 100 µM
8 | Nc1ncnc2c1ncn2[C@@H]1O[C@H](COP(=O)(O)OP(=O)(O)OC[C@H]2O[C@@H](OCCCO)[C@H](O)[C@@H]2O)[C@@H](O)[C@H]1O | > 100 µM | > 100 µM | > 100 µM | > 100 µM | > 100 µM | > 100 µM | > 100 µM | > 100 µM | > 100 µM | > 100 µM | > 100 µM | > 100 µM | > 100 µM | > 100 µM | > 100 µM | > 100 µM | > 100 µM | > 100 µM | > 100 µM | > 100 µM
9 | O=S(=O)(O)c1cc(S(=O)(=O)O)c2c(N=Nc3ccc(S(=O)(=O)O)c4ccccc34)c(O)ccc2c1 | > 100 µM | – | > 100 µM | > 100 µM | > 100 µM | > 100 µM | – | > 100 µM | > 100 µM | > 100 µM | > 100 µM | > 100 µM | – | > 100 µM | > 100 µM | > 100 µM | > 100 µM | – | > 100 µM | –
10 | CC(ON1[C@](C)(c2ccccc2)CC[C@@]1(C)c1ccccc1)c1ccccc1 (stereo partly drawn) | > 100 µM | 52.6 µM | > 100 µM | 54.6 µM | > 100 µM | > 100 µM | – | > 100 µM | > 100 µM | 87.3 µM | > 100 µM | > 100 µM | > 100 µM | > 100 µM | > 100 µM | > 100 µM | > 100 µM | > 100 µM | > 100 µM | –
11 | CN(C)c1ccc(C2CC(=O)CC(c3ccc(N(C)C)cc3)C23C(=O)NC(=S)NC3=O)cc1 (stereo not drawn) | > 100 µM | > 100 µM | > 100 µM | 31.2 µM | > 100 µM | > 100 µM | > 100 µM | > 100 µM | > 100 µM | > 100 µM | > 100 µM | > 100 µM | > 100 µM | > 100 µM | > 100 µM | > 100 µM | > 100 µM | > 100 µM | > 100 µM | > 100 µM
12 | O=C1NC(=NCc2ccc(F)cc2)N/C1=C\c1ccccc1Cl | 28.6 µM | > 100 µM | 30.3 µM | 26.6 µM | 70.8 µM | 43.9 µM | 34 µM | 31.1 µM | 86.1 µM | 29.4 µM | 59.9 µM | 35.8 µM | > 100 µM | 41.8 µM | > 100 µM | > 100 µM | 32.6 µM | > 100 µM | 37.5 µM | 54.8 µM
